Values of other authors as cited in US20080287418A1, “Extended Release Compositions and Methods for Their Manufacture” (ASTRAZENECA AB, priority 2007, published 2008).

For `OCCOCCN1CCN(C2=Nc3ccccc3Sc3ccccc32)CC1` [quetiapine, 11-[4-[2-(2-hydroxyethoxy)ethyl]-1-piperazinyl]dibenzo[b,f][1,4]thiazepine], the Solubility in acid (acid) is given as “soluble in acid” and the Solubility in water (water) is given as “slightly soluble in water”.
